# From paper PMC6127270 (Frontiers in Pharmacology, 2018)
# Read-outs that look alike come from different tables or passages of the source.
# Tests used:
# [1] = tested on: mouse vas deferens (MVD) preparation; conditions: for IC50: read-out: Bioassay IC50 MVD, inhibition of electrically evoked twitch
# [2] = tested on: guinea-pig ileum (GPI) myenteric plexus-longitudinal muscle preparation; conditions: for IC50: read-out: Bioassay IC50 GPI, inhibition of electrically evoked twitch
# [3] = tested on: guinea-pig ileum (GPI) myenteric plexus-longitudinal muscle preparation; assay: tissue or blood; conditions: Cavia porcellus, read-out: Bioassay IC50 GPI
# human MOR = target: T1, human MOR (Homo sapiens, UniProt P35372); assay: [35S]GTPγS binding, CHO-hMOR membranes; assay type: biochemical; conditions: for [35S]GTPγS Binding MOR % stim.: relative to DAMGO
# T1 construct: host or cells: CHO
# CD-1 mice [4] = assay: Hot-plate assay (acute thermal nociception); assay type: in vivo, mouse
# human DOR = target: T2, human DOR (Homo sapiens, UniProt P41143); assay: [35S]GTPγS binding, CHO-hDOR membranes; assay type: biochemical; conditions: for [35S]GTPγS Binding DOR % stim.: relative to DPDPE
# T2 construct: host or cells: CHO
# [5] = tested on: mouse vas deferens (MVD) preparation; assay: tissue or blood; conditions: read-out: Bioassay IC50 MVD
# MOR = target: T3, MOR (Rattus norvegicus, UniProt P33535); assay: Competition binding, [3H]DAMGO, rat brain membranes
# T3 construct: Membranes were prepared from Sprague–Dawley rat brains or guinea-pig brains; from tissue; host or cells: Sprague-Dawley rat brain
# human KOR = target: T4, human KOR (Homo sapiens, UniProt P41145); assay: biochemical; assay type: biochemical
# T4 construct: host or cells: CHO
# [6] = Charcoal meal test (gastrointestinal transit); conditions: male, CD-1, mouse, in vivo, sc
# CD-1 mice [7] = assay: Charcoal meal test (gastrointestinal transit); conditions: mice; for Inhibition of gastrointestinal transit at highest tested dose: highest doses morphine 8000, 14-OMO 90, POMO […]
# KOR = target: T5, KOR (Cavia porcellus, UniProt P41144); assay: Competition binding, [3H]U69,593, guinea-pig brain membranes
# T5 construct: Membranes were prepared from Sprague–Dawley rat brains or guinea-pig brains; from tissue; host or cells: guinea-pig brain
# DOR = target: T6, DOR (Rattus norvegicus, UniProt P33533); assay: Competition binding, [3H][Ile5,6]deltorphin II, rat brain membranes
# T6 construct: Membranes were prepared from Sprague–Dawley rat brains or guinea-pig brains; from tissue; host or cells: Sprague-Dawley rat brain
# CD-1 mice [8] = conditions: s.c., hot-plate, values marked c (footnote not given), ref Lattanzi et al., 2005; cited from earlier work
# [9] = tested on: mouse vas deferens (MVD) preparation; design: method as in Lattanzi et al., 2005; conditions: values marked c (footnote not given); ref Lattanzi et al., 2005; read-out: Bioassay IC50 MVD; cited from earlier work
# [10] = tested on: guinea-pig ileum (GPI) myenteric plexus-longitudinal muscle preparation; design: method as in Lattanzi et al., 2005; conditions: values marked c (footnote not given); ref Lattanzi et al., 2005; read-out: Bioassay IC50 GPI; cited from earlier work
smiles,measurement,setting,value
"C[C@@H](NC(=O)[C@@H](N)Cc1ccc(O)cc1)C(=O)N[C@@H](Cc1ccccc1)C(=O)NCC(=O)N[C@@H](Cc1ccc(O)cc1)C(=O)N1CCC[C@H]1C(=O)N[C@@H](CO)C(N)=O [Dermorphin, reference compound]",IC50,[1],18 ± 0.31 nM
same,IC50,[2],1.3 ± 0.27 nM
"CN1CC[C@]23c4c5ccc(O)c4O[C@H]2C(=O)CC[C@@]3(OCCCc2ccccc2)[C@H]1C5 [POMO, 14-O-phenylpropyloxymorphone]",IC50,[3],1.2 ± 0.21 nM
same,EC50,human MOR,0.082 ± 0.017 nM
same,Agonist efficacy at MOR,human MOR; [35S]GTPγS binding,full efficacy
same,Fold increase in potency (EC50) than 14-OMO at MOR,human MOR; [35S]GTPγS binding,20 fold
same,[35S]GTPγS Binding MOR % stim.,human MOR,100 ± 8%
same,Antagonism of antinociception by naloxone,"CD-1 mice [4]; POMO 2 nmol/kg s.c., 20 min, naloxone 1 mg/kg s.c., -10 min",significantly antagonized
same,Antagonism of antinociception by naltrindole,"CD-1 mice [4]; POMO 2 nmol/kg s.c., 20 min, naltrindole 3 mg/kg s.c., -10 min",did not antagonize
same,Antagonism of antinociception by nor-BNI,"CD-1 mice [4]; POMO 2 nmol/kg s.c., 20 min, nor-BNI 20 mg/kg s.c., -24 h",did not antagonize
same,Fold increased antinociceptive potency than 14-OMO,"CD-1 mice [4]; hot-plate, mice, s.c.",over 70 fold
same,Fold increased antinociceptive potency than morphine,"CD-1 mice [4]; hot-plate, mice, s.c.",> 9000 fold
same,Time of peak antinociceptive response,"CD-1 mice [4]; hot-plate, mice, s.c.",20 min
same,Fold increase in antinociceptive potency than oxymorphone,"CD-1 mice [4]; hot-plate, mice, s.c., oxymorphone value from Dumitrascuta et al., 2017",> 1400 fold
same,AD50 hot-plate test,"CD-1 mice [4]; mice, s.c.",0.7 nmol/kg
same,Antinociceptive activity AD50 (95% CI),"CD-1 mice [4]; mice, s.c., hot-plate, at peak of action",0.70 (0.63–0.77) μg/kg
same,EC50,human DOR,0.28 ± 0.14 nM
same,Agonist efficacy at DOR,human DOR; [35S]GTPγS binding,full efficacy
same,Fold increase in potency (EC50) than 14-OMO at DOR,human DOR; [35S]GTPγS binding,151 fold
same,[35S]GTPγS Binding DOR % stim.,human DOR,91 ± 8%
same,IC50,[5],0.03 ± 0.0013 nM
same,Ki,MOR,0.073 ± 0.007 nM
same,Selectivity DOR/MOR,MOR; ratio of Ki values,1.8
same,Selectivity KOR/MOR,MOR; ratio of Ki values,4.1
same,Fold more potent than 14-OMO as agonist in MVD,[1],1000 fold
same,Fold more potent than morphine as agonist in MVD,[1],"> 50,000 fold"
same,Agonist efficacy at KOR,human KOR,partial agonism
same,EC50,human KOR,0.38 ± 0.13 nM
same,Fold increase in potency (EC50) than 14-OMO at KOR,human KOR,411 fold
same,[35S]GTPγS Binding KOR % stim.,human KOR,39 ± 5%
same,ED50 at 30 min,[6],0.0017 µmol/kg
same,Inhibition of gastrointestinal transit compared with 14-OMO and morphine,CD-1 mice [7]; charcoal test,fourfold less inhibition
same,Inhibition of gastrointestinal transit at highest tested dose,"CD-1 mice [7]; charcoal test, s.c.",50%
same,Ratio ED50(constipation) vs. AD50(antinociception),CD-1 mice [7]; s.c.,2.43
same,Ki,KOR,0.3 ± 0.01 nM
same,Ki,DOR,0.13 ± 0.02 nM
same,Fold more potent than morphine as agonist in GPI,[2],over 250 fold
"CC(C)[C@H](NC(=O)[C@H](CC(=O)O)NC(=O)[C@H](Cc1ccccc1)NC(=O)[C@@H](C)NC(=O)[C@@H](N)Cc1ccc(O)cc1)C(=O)N[C@H](C(=O)NCC(N)=O)C(C)C [Deltorphin I, deltorphin I, reference compound]",IC50,[1],0.19 ± 0.03 nM
same,IC50,[2],1240 ± 132 nM
"CN1CC[C@]23c4c5ccc(O)c4O[C@H]2[C@@H](O)C=C[C@H]3[C@H]1C5 [Morphine, Morphine hydrocloride, reference compound]",ED50 at 30 min,[6],3.8 µmol/kg
same,Inhibition of gastrointestinal transit at highest tested dose,"CD-1 mice [7]; charcoal test, s.c.",completely abolishing transit
same,Antinociceptive activity AD50 (95% CI),CD-1 mice [8],6690 (4468–9348)^c μg/kg
"C[C@@H](NC(=O)[C@@H](N)Cc1ccc(O)cc1)C(=O)NCC(=O)N(C)[C@@H](Cc1ccccc1)C(=O)NCCO [DAMGO, [D-Ala^2,N-Me-Phe^4,Gly-ol^5]enkephalin, reference compound]",[35S]GTPγS Binding MOR % stim.,human MOR,100%
"CO[C@@]12CCC(=O)[C@@H]3Oc4c(O)ccc5c4[C@@]31CCN(C)[C@@H]2C5 [14-OMO, 14-O-methyloxymorphone, reference compound]",IC50,[9],30.5 ± 5.5 nM
same,EC50,human MOR,1.62 ± 0.48 nM
same,[35S]GTPγS Binding MOR % stim.,human MOR,97 ± 6%
same,EC50,human DOR,43.8 ± 11.7 nM
same,[35S]GTPγS Binding DOR % stim.,human DOR,106 ± 1%
same,IC50,[10],2 ± 0.3 nM
same,EC50,human KOR,144 ± 32 nM
same,[35S]GTPγS Binding KOR % stim.,human KOR,65 ± 7%
same,ED50 at 30 min,[6],0.037 µmol/kg
same,Inhibition of gastrointestinal transit at highest tested dose,"CD-1 mice [7]; charcoal test, s.c.",90%
same,Antinociceptive activity AD50 (95% CI),CD-1 mice [8],53 (48–58)^c μg/kg
